Among the data in article PMC10507085, “Pharmacological inhibition of TBK1/IKKε blunts immunopathology in a murine model of SARS-CoV-2 infection” (Nature Communications, 2023) are remaining binding values, retold here.

Targets include CSNK2A1 (Homo sapiens, UniProt P68400); TEC (Homo sapiens, UniProt P42680); PI4KB (Homo sapiens, UniProt Q9UBF8); STK38L (Homo sapiens, UniProt Q9Y2H1); DAPK1 (Homo sapiens, UniProt P53355); MAP2K6 (Homo sapiens, UniProt P52564); TESK1 (Homo sapiens, UniProt Q15569); EIF2AK2 (Homo sapiens, UniProt P19525); CDK2 (Homo sapiens, UniProt P24941); FLT3 (Homo sapiens, UniProt P36888); CDC42BPB (Homo sapiens, UniProt Q9Y5S2); PTK2 (Homo sapiens, UniProt Q05397); MAPK11 (Homo sapiens, UniProt Q15759); MAP4K1 (Homo sapiens, UniProt Q92918); SLK (Homo sapiens, UniProt Q9H2G2); CSF1R (Homo sapiens, UniProt P07333); PIK3C2G (Homo sapiens, UniProt O75747); AKT3 (Homo sapiens, UniProt Q9Y243).

Experiment in all cases: biochemical
Holding throughout (parameters): KINOMEscan competition binding, DNA-tagged kinase against immobilised ligand, qPCR read-out
Holding throughout (settings): read-out: Percent Control
Background: Real-time PCR tracks product formation cycle by cycle.

For experiment [1], the target named is T1, RPS6KA4(Kin.Dom.2-C-terminal) (Homo sapiens, UniProt O75676).
T1 construct: Kin.Dom.2 C-terminal

Experiment [2] concerns the target T2, RPS6KA5(Kin.Dom.2-C-terminal) (Homo sapiens, UniProt O75582).
T2 construct: Kin.Dom.2 C-terminal

Sequence of TEC (P42680 whole entry): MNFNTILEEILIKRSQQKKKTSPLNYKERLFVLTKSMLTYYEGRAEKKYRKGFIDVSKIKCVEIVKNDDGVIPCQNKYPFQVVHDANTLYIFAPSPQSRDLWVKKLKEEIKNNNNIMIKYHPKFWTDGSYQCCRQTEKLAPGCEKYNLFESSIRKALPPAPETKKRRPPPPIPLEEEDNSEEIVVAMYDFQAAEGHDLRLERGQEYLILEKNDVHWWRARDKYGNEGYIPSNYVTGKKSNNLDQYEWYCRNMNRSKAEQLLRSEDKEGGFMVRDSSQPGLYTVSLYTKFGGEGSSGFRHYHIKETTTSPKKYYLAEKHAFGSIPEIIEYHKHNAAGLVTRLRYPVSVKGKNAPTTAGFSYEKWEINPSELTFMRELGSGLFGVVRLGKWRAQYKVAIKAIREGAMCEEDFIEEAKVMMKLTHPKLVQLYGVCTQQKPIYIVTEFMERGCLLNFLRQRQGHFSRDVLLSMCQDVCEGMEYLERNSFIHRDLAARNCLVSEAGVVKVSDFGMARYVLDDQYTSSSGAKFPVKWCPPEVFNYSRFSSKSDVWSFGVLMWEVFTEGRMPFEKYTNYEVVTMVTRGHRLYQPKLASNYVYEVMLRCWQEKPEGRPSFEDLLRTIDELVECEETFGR
Sequence of DAPK1 (P53355 whole entry): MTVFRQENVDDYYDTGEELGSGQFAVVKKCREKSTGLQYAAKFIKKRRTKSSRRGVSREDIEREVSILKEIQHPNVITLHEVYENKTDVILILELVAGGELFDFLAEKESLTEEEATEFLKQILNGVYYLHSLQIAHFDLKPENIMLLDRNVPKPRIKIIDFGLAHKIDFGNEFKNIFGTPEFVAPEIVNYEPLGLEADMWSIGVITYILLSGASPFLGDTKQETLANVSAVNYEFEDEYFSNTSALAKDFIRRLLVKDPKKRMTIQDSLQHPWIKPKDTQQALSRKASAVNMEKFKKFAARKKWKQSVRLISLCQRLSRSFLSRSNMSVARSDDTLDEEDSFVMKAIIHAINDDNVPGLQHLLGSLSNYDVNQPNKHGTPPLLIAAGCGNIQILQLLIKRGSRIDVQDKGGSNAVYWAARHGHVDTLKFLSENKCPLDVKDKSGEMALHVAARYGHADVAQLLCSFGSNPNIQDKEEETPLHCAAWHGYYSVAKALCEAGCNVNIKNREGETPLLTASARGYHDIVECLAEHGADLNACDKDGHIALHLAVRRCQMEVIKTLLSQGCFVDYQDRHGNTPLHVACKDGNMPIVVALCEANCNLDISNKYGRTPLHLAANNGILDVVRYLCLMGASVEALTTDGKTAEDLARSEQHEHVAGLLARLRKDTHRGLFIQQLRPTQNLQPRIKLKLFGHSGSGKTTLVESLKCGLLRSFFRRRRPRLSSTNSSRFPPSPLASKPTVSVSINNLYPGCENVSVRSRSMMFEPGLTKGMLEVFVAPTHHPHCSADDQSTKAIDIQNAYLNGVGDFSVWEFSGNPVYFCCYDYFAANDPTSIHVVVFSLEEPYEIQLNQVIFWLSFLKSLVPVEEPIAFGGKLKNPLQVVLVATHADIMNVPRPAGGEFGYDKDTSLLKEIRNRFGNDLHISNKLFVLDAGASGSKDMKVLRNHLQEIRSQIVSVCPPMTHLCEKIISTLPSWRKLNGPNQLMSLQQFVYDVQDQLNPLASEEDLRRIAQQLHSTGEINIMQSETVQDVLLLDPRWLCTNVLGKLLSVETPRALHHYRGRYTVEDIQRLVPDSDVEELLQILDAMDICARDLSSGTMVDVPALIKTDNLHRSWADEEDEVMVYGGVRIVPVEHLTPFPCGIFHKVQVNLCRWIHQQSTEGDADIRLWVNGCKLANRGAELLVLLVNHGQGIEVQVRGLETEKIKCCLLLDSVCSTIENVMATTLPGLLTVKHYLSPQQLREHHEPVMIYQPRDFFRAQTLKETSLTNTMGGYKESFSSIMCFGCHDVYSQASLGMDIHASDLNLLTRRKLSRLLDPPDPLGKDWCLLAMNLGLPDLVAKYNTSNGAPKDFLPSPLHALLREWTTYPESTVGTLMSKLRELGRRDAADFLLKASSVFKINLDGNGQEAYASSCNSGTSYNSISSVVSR
T1 sequence (O75676 whole entry): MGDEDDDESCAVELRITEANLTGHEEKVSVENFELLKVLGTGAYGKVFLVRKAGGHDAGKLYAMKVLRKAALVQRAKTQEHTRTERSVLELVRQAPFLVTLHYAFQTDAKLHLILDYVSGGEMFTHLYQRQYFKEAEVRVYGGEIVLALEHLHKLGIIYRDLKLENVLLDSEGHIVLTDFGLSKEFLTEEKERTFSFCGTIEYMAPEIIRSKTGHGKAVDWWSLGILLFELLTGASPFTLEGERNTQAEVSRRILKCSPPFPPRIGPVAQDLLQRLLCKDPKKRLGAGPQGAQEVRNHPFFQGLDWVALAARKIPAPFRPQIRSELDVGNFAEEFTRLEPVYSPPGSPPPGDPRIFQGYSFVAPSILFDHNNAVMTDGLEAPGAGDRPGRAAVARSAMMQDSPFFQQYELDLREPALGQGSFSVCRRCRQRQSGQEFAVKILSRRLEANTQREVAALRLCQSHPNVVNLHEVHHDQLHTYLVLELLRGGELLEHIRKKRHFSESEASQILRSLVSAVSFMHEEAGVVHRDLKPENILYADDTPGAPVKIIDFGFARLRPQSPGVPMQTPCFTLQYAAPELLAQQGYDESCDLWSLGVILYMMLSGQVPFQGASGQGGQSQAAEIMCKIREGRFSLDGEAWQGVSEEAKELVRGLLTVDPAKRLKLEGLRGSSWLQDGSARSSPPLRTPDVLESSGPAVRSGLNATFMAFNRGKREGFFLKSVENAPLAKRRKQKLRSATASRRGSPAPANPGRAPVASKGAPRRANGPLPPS
Sequence of PTK2 (Q05397 whole entry): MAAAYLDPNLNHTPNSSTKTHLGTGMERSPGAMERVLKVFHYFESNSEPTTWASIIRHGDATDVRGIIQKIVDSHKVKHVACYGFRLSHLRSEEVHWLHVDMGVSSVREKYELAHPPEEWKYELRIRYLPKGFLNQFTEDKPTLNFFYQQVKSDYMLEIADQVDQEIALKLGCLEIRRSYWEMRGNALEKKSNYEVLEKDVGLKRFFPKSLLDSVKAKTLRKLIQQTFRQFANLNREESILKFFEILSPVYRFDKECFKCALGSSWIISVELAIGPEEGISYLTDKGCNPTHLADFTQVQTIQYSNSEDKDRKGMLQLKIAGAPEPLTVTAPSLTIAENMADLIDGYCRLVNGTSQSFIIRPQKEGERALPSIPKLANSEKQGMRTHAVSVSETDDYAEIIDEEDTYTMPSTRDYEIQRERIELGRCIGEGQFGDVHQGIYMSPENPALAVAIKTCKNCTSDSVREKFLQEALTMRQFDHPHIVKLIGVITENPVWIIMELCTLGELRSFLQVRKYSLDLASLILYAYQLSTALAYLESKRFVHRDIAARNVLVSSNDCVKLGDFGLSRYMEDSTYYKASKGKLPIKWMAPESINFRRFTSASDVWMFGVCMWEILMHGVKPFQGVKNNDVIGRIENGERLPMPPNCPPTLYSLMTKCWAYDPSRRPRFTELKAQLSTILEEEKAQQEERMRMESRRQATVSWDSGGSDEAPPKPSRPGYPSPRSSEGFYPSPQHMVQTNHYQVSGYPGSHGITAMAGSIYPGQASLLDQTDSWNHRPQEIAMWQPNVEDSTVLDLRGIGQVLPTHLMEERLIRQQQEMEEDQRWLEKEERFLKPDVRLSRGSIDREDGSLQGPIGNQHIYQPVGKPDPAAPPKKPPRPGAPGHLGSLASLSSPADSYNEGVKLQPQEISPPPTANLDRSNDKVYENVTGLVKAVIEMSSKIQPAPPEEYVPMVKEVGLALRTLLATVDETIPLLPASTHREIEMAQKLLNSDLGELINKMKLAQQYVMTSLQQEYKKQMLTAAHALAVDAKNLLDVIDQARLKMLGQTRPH
Sequence of MAP2K6 (P52564 whole entry): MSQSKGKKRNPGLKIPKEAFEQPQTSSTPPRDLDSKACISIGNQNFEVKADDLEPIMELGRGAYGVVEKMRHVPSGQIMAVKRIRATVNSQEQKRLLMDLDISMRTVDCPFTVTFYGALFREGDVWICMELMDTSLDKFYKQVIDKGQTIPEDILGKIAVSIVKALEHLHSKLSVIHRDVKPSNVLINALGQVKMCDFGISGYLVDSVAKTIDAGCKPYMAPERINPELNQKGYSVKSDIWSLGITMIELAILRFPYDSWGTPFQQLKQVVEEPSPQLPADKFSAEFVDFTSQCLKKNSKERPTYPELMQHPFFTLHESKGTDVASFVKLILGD
Sequence of MAP4K1 (Q92918 whole entry): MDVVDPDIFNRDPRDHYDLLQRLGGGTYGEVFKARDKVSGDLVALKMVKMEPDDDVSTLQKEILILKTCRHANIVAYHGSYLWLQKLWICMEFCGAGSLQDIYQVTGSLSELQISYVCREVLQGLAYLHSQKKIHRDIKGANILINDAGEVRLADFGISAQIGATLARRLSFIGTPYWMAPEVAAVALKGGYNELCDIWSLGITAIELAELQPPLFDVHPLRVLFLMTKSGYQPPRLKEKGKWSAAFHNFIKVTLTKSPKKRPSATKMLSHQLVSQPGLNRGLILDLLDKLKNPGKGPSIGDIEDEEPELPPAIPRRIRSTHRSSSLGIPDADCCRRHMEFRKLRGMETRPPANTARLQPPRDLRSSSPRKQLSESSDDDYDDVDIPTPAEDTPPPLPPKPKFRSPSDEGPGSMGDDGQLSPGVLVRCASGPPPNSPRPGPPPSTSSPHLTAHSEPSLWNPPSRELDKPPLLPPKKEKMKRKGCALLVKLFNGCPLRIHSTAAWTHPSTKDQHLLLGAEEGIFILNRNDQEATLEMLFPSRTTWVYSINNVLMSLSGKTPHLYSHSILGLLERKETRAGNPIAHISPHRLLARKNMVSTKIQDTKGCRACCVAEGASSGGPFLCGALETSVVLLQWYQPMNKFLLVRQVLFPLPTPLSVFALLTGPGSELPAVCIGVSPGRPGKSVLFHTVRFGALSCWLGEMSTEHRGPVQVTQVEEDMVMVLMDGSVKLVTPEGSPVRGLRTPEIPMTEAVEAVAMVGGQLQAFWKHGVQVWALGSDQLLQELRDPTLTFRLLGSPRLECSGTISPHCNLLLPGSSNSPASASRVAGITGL

Regarding `Oc1ccc(C2=Cc3ccc(O)cc3OC2)cc1` [compound 1, idronoxil], the remaining binding at 10 µM on CSNK2A1 was 49%; on TEC, 93%; on PI4KB, 63%; at STK38L it was 92%; on DAPK1, 53%; at MAP2K6, 85%. Further, the remaining binding at 10 µM on TESK1 was 86%; on EIF2AK2, 85%; on CDK2, 92%; at FLT3, 80%; at CDC42BPB it was 88%; in experiment [1] it was 53%. Further, the remaining binding at 10 µM was determined as 100% on PTK2; 85% on MAPK11; 78% at MAP4K1; 100% in experiment [2]; 73% on SLK; 26% on CSF1R. Besides, the results for the remaining binding at 10 µM at PIK3C2G and on AKT3 were 73% and 84%, respectively.
